Source: ChEMBL document CHEMBL1201862, “PubChem BioAssay data set” (2004)
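Step 1: Grow cells in 96-well plates. Step 2: Expose to compound for 48 hours at 5 concentrations. Step 3: Interpolate endpoints linearly; if unreached, use highest concentration. Here, GI50 denotes the concentration required for 50% inhibition of growth.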 Activity calls are given as the source filed them. Cut-off read from the data, not from the text of the source: active = GI50 up to about 1.1 µM and inactive = higher.

Tests used:
Experiment in all cases: NCI tumour cell line growth inhibition, 48 h
786-0 = tested on: 786-0
A498 = tested on: A498
A549 = tested on: A549
ACHN = tested on: ACHN
CAKI-1 = tested on: CAKI-1
CCRF-CEM = tested on: CCRF-CEM
COLO 205 = tested on: COLO 205
DLD-1 = tested on: DLD-1
DMS-114 = tested on: DMS-114
DMS-273 = tested on: DMS-273
EKVX = tested on: EKVX
HCC 2998 = tested on: HCC 2998
HCT-116 = tested on: HCT-116
HCT-15 = tested on: HCT-15
HL-60 = tested on: HL-60
HOP-18 = tested on: HOP-18
HOP-62 = tested on: HOP-62
HOP-92 = tested on: HOP-92
HT-29 = tested on: HT-29
IGROV-1 = tested on: IGROV-1
K562 = tested on: K562
KM-20L2 = tested on: KM-20L2
KM12 = tested on: KM12
LOX IMVI = tested on: LOX IMVI
LXFL 529 = tested on: LXFL 529
M14 = tested on: M14
M19-MEL = tested on: M19-MEL
MOLT-4 = tested on: MOLT-4
Malme-3M = tested on: Malme-3M
NCI-H226 = tested on: NCI-H226
NCI-H23 = tested on: NCI-H23
NCI-H460 = tested on: NCI-H460
OVCAR-3 = tested on: OVCAR-3
OVCAR-4 = tested on: OVCAR-4
OVCAR-5 = tested on: OVCAR-5
OVCAR-8 = tested on: OVCAR-8
RPMI-8226 = tested on: RPMI-8226
RXF 393 = tested on: RXF 393
RXF 631 = tested on: RXF 631
SF-268 = tested on: SF-268
SF-295 = tested on: SF-295
SF-539 = tested on: SF-539
SK-MEL-28 = tested on: SK-MEL-28
SK-MEL-2 = tested on: SK-MEL-2
SK-MEL-5 = tested on: SK-MEL-5
SK-OV-3 = tested on: SK-OV-3
SN12C = tested on: SN12C
SNB-19 = tested on: SNB-19
SNB-75 = tested on: SNB-75
SNB-78 = tested on: SNB-78
SR = tested on: SR
SW-620 = tested on: SW-620
TK-10 = tested on: TK-10
U-251 = tested on: U-251
UACC-257 = tested on: UACC-257
UACC-62 = tested on: UACC-62
UO-31 = tested on: UO-31
XF498 = tested on: XF498

In the case of `CC1(C(=O)O)CCC[C@@]2(C)C1CC[C@@]1(C)c3cocc3CCC21` (stereo partly drawn), the GI50 (786-0) is reported as 83.6 µM (inactive), the GI50 (A498) is reported as > 100 µM (inactive) and the GI50 (A549) is reported as 70.8 µM (inactive). The GI50 (ACHN) was > 100 µM (inactive), the GI50 (CAKI-1) was > 100 µM (inactive) and the GI50 (CCRF-CEM) was > 100 µM (inactive). The GI50 (COLO 205) was > 100 µM (inactive), the GI50 (DLD-1) was > 100 µM (inactive) and the GI50 (DMS-114) was > 100 µM (inactive). The GI50 (DMS-273) was > 100 µM (inactive), the GI50 (EKVX) was > 100 µM (inactive) and the GI50 (HCC 2998) was > 100 µM (inactive). For the same compound, the GI50 (HCT-116) was 72.8 µM (inactive), the GI50 (HCT-15) was greater than 100 µM and the GI50 (HL-60) was > 100 µM (inactive). The GI50 (HOP-18) was > 100 µM (inactive), the GI50 (HOP-62) was > 100 µM (inactive) and the GI50 (HOP-92) was > 100 µM (inactive). The GI50 (HT-29) was > 100 µM (inactive), the GI50 (IGROV-1) was > 100 µM (inactive) and the GI50 (K562) was 40.9 µM (inactive). For the same compound, the GI50 (KM-20L2) was > 100 µM (inactive), the GI50 (KM12) was > 100 µM (inactive) and the GI50 (LOX IMVI) was > 100 µM (inactive). For the same compound, the GI50 (LXFL 529) was > 100 µM (inactive), the GI50 (M14) was > 100 µM (inactive) and the GI50 (M19-MEL) was > 100 µM (inactive). For the same compound, the GI50 (MOLT-4) was > 100 µM (inactive), the GI50 (Malme-3M) was > 100 µM (inactive) and the GI50 (NCI-H226) was > 100 µM (inactive). The GI50 (NCI-H23) was > 100 µM (inactive), the GI50 (NCI-H460) was > 100 µM (inactive) and the GI50 (OVCAR-3) was > 100 µM (inactive). For the same compound, the GI50 (OVCAR-4) was > 100 µM (inactive), the GI50 (OVCAR-5) was > 100 µM (inactive) and the GI50 (OVCAR-8) was > 100 µM (inactive). The GI50 (RPMI-8226) was > 100 µM (inactive), the GI50 (RXF 393) was > 100 µM (inactive) and the GI50 (RXF 631) was > 100 µM (inactive). The GI50 (SF-268) was > 100 µM (inactive), the GI50 (SF-295) was > 100 µM (inactive) and the GI50 (SF-539) was > 100 µM (inactive). The GI50 (SK-MEL-28) was > 100 µM (inactive), the GI50 (SK-MEL-2) was > 100 µM (inactive) and the GI50 (SK-MEL-5) was > 100 µM (inactive). The GI50 (SK-OV-3) was > 100 µM (inactive), the GI50 (SN12C) was > 100 µM (inactive) and the GI50 (SNB-19) was > 100 µM (inactive). The GI50 (SNB-75) was > 100 µM (inactive), the GI50 (SNB-78) was > 100 µM (inactive) and the GI50 (SR) was > 100 µM (inactive). For the same compound, the GI50 (SW-620) was > 100 µM (inactive), the GI50 (TK-10) was > 100 µM (inactive) and the GI50 (U-251) was 97.7 µM (inactive). For the same compound, the GI50 (UACC-257) was > 100 µM (inactive), the GI50 (UACC-62) was > 100 µM (inactive) and the GI50 (UO-31) was > 100 µM (inactive). The GI50 (XF498) was > 100 µM (inactive).
